Structures can show the parent of a compound that is named as a salt. Where two headings read alike, the source gives them in different places.
Tests used:
[1] = target: T1, human MCHR1 (Homo sapiens, UniProt Q99705); experiment: 125I-MCH competitive binding assay on clone 43 membranes (MCHR1 binding); conditions: competitive binding vs 100 pM 125I-MCH, clone 43 membranes (AV12 cells expressing MCHR1), Ki from IC50 by Cheng-Prusoff, tested in duplicate, read-out: MCHr Binding Ki
T1 construct: The full-length cDNA for human MCHR1 was cloned; expressed in transfected cells; host or cells: AV12 cells previously transfected with Gα15
Method: The full-length cDNA for human MCHR1 was cloned from a human adult brain cDNA library (Edge Biosystems, Cat. 38356) by standard polymerase chain reaction (PCR) methodology employing the following primers: sense, 5′-GCCACCATGGACCT GGAAGCCTCGCTGC-3′; anti-sense, 5′-[…]-3′. The PCR reaction was performed in a final volume of 50 μL containing 5 μL of a 10× stock solution of PCR buffer, 1 μL of 10 mM dNTP mixture (200 μM final), 2 μL of 50 mM Mg(SO4) (2 mM final), 0.5 μL of 20 μM solutions of each primer (0.2 μM final), 5 μL of template cDNA containing 0.5 ng DNA, 0.5 μL of Platinum Taq High Fidelity DNA polymerase (Gibco Life Technologies) and 36 μL of H2O. PCR amplification was performed on a Perkin Elmer 9600 thermocycler. After denaturation for 90 sec at 94° C., the amplification sequence consisting of 94° C. for 25 sec, 55° C. for 25 sec and 72° C. for 2 min was repeated 30 times, followed by a final elongation step at 72° C. for 10 min. The desired PCR product (1.1 Kb) was confirmed by agarose gel electrophoresis and the band was extracted from the gel by Geneclean (Bio101) following the manufacturer's instructions. Following extraction, the cDNA fragment was cloned into pCR2.1-TOPO plasmid (Invitrogen) to confirm the identity and sequence.
In order to generate cell lines stably expressing MCHR1, the insert was then subcloned into the Xba I and Not I sites of pcDNA(+)-3.1-neomycin (Invitrogen). After purification by Qiagen Maxi-prep kit (QIAGEN, Inc.), the plasmid was transfected by Fugene 6 (Roche Applied Science) into AV12 cells that had been previously transfected with the promiscuous G protein Gα15. The transfected cells were selected by G418 (800 μg/mL) for 10–14 days and single colonies were isolated from culture plates. The G418-resistant colonies were further selected for MCHR1 expression by measuring MCH-stimulated Ca^2+ transients with a fluorometric imaging plate reader (FLIPR, Molecular Devices).
Both the ^125I-MCH binding and functional GTPγ^35S binding assays employed membranes isolated from a clone designated as clone 43. Typically, cells from 20 confluent T225 flasks were processed by washing the monolayers in cold phosphate-buffered saline (PBS), scraping the cells into same and re-suspending the cell pellet in 35 mL of 250 mM Sucrose, 50 mM HEPES, pH 7.5, 1 mM MgCl2, 24 μg/mL DNase I, and protease inhibitors (1 Complete® tablet, per 50 ml of buffer prepared, Roche Diagnostics). After incubation on ice for 5 min, cells were disrupted with 20–25 strokes of a Teflon/Glass homogenizer attached to an overhead motorized stirrer, and the homogenate was centrifuged at 40,000 rpm in Beckman Type 70.1 Ti rotor. The pellets were re-suspended in 250 mM Sucrose, 50 mM HEPES, pH 7.5, 1.5 mM CaCl2, 1 mM MgSO4 and protease inhibitors by Teflon/Glass homogenization to achieve a protein concentration of ˜3–5 mg/ml (Pierce BCA assay with Bovine serum albumin as standard). Aliquots were stored at −70° C.
Binding of compounds to MCHR1 was assessed in a competitive binding assay employing ^125I-MCH, compound and clone 43 membranes. Briefly, assays are carried out in 96-well Costar 3632 white opaque plates in a total volume of 200 μl containing 25 mM HEPES, pH 7.5, 10 mM CaCl2, 2 mg/ml bovine serum albumin, 0.5% dimethyl sulfoxide (DMSO), 4 μg of clone 43 membranes, 100 pM ^125I-MCH (NEN), 1.0 mg of wheat germ agglutinin scintillation proximity assay beads (WGA-SPA beads, Amersham) and a graded dose of test compound. Non-specific binding is assessed in the presence of 1 μM unlabeled MCH. Bound ^125I-MCH is determined by placing sealed plates in a Microbeta Trilux (Wallac) and counting after a 5 hr delay.
IC50 values (defined as the concentration of test compound required to reduce specific binding of ^125I-MCH by 50%) are determined by fitting the concentration-response data to a 4-parameter model (max response, min response, Hill coefficient, IC50) using Excel. […]

T1 sequence (Q99705 whole entry): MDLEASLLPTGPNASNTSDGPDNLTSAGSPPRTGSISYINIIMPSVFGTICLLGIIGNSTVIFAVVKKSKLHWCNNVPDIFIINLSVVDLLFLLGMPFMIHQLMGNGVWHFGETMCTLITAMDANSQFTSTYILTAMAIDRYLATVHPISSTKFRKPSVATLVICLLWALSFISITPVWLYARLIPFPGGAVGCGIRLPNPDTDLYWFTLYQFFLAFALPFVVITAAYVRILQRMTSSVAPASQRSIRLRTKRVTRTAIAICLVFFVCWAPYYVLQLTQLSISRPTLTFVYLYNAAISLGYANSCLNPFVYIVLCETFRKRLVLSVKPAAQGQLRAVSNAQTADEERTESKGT

melting point [°C]	Ki [1] [µM]	Molecule	Ki ([1]; oxalate) [µM]
150 to 153		CN(C)CCNC(=O)c1ccccc1-c1cccc(CSCCOc2ccccc2)c1.Cl	
46 to 50		CN(C)CCNC(=O)c1ccccc1-c1ccccc1CSCCOc1ccccc1.O=C(O)C(=O)O	
64 to 70		CN(C)CCCCNC(=O)c1ccccc1-c1ccccc1CSCCOc1ccccc1.O=C(O)C(=O)O	
109 to 113		CN(C)CCNC(=O)c1ccccc1-c1ccc(CSCCOc2ccccc2)cc1.O=C(O)C(=O)O	
		4′-(2-phenoxy-ethylsulfanylmethyl)-biphenyl-4-carboxylic acid (2-dimethylamino-ethyl)-amide oxalate [Example 4]	11.7
112 to 115		CN(C)CCCNC(=O)c1ccc(-c2ccc(CSCCOc3ccccc3)cc2)cc1 (as salt: hydrochloride)	
132 to 133.5	5.04	CN(C)CCCNC(=O)c1cccc(-c2ccc(CSCCOc3ccccc3)cc2)c1.O=C(O)C(=O)O [Example 1, 4′-(2-phenoxy-ethylsulfanylmethyl)-biphenyl-3-carboxylic acid(3-dimethylamino-propyl)-amide oxalate]	
88 to 93	7.52	CN(C)CCNC(=O)c1cccc(-c2ccc(CSCCOc3ccccc3)cc2)c1.O=C(O)C(=O)O [Example 2, 4′-(2-phenoxy-ethylsulfanylmethyl)-biphenyl-3-carboxylic acid (2-dimethylamino-ethyl)-amide oxalate]	
144 to 147	10.7	CN(C)CCCCNC(=O)c1cccc(-c2ccc(CSCCOc3ccccc3)cc2)c1.O=C(O)C(=O)O [Example 3, 4′-(2-phenoxy-ethylsulfanylmethyl)-biphenyl-3-carboxylic acid (4-dimethylamino-butyl)-amide oxalate]	
142 to 147	10.1	CN(C)CCCCNC(=O)c1ccc(-c2ccc(CSCCOc3ccccc3)cc2)cc1.O=C(O)C(=O)O [Example 6, 4′-(2-phenoxy-ethylsulfanylmethyl)-biphenyl-4-carboxylic acid (4-dimethylamino-butyl)-amide oxalate]	
72 to 76	16.3	CN(C)CCCCNC(=O)c1ccccc1-c1ccc(CSCCOc2ccccc2)cc1.O=C(O)C(=O)O [Example 9, 4′-(2-phenoxy-ethylsulfanylmethyl)-biphenyl-2-carboxylic acid (4-dimethylamino-butyl)-amide oxalate]	
51 to 53	8.76	CN(C)CCCNC(=O)c1cccc(-c2cccc(CSCCOc3ccccc3)c2)c1.O=C(O)C(=O)O [Example 13, 3′-(2-phenoxy-ethylsulfanylmethyl)-biphenyl-3-carboxylic acid (3-dimethylamino-propyl)-amide oxalate]	
75 to 78	1.47	CN(C)CCNC(=O)c1ccc(-c2cccc(CSCCOc3ccccc3)c2)cc1 [Example 14, 3′-(2-phenoxy-ethylsulfanylmethyl)-biphenyl-4-carboxylic acid (2-dimethylamino-ethyl)-amide]	
133 to 137	1.95	CN(C)CCCNC(=O)c1ccc(-c2cccc(CSCCOc3ccccc3)c2)cc1.O=C(O)C(=O)O [Example 15, 3′-(2-phenoxy-ethylsulfanylmethyl)-biphenyl4-carboxylic acid (3-dimethylamino-propyl)-amide oxalate]	
85 to 89	8.96	CN(C)CCCCNC(=O)c1ccc(-c2cccc(CSCCOc3ccccc3)c2)cc1.O=C(O)C(=O)O [Example 16, 3′-(2-phenoxy-ethylsulfanylmethyl)-biphenyl4-carboxylic acid (4-dimethylamino-butyl)-amide oxalate]	
96 to 100	11.4	CN(C)CCNC(=O)c1cccc(-c2ccccc2CSCCOc2ccccc2)c1.O=C(O)C(=O)O [Example 20, 2′-(2-phenoxy-ethylsulfanylmethyl)-biphenyl-3-carboxylic acid (2-dimethylamino-ethyl)-amide oxalate]	
97 to 100	8.55	CN(C)CCCNC(=O)c1cccc(-c2ccccc2CSCCOc2ccccc2)c1.O=C(O)C(=O)O [Example 21, 2′-(2-phenoxy-ethylsulfanylmethyl)-biphenyl-3-carboxylic acid (3-dimethylamino-propyl)-amide oxalate]	
93 to 96	7.2	CN(C)CCNC(=O)c1ccc(-c2ccccc2CSCCOc2ccccc2)cc1 [Example 23, 2′-(2-phenoxy-ethylsulfanylmethyl)-biphenyl4-carboxylic acid (2-dimethylamino-ethyl)-amide]	
98 to 100	6.13	CN(C)CCCNC(=O)c1ccc(-c2ccccc2CSCCOc2ccccc2)cc1 [Example 24, 2′-(2-phenoxy-ethylsulfanylmethyl)-biphenyl4-carboxylic acid (3-dimethylamino-propyl)-amide]	
	6.89	CN(C)CCCCNC(=O)c1ccc(-c2ccccc2CSCCOc2ccccc2)cc1 [Example 25, 2′-(2-phenoxy-ethylsulfanylmethyl)-biphenyl4-carboxylic acid (4-dimethylamino-butyl)-amide]	

Molecule	melting point [°C]	Ki [1] [µM]	Ki ([1]; oxalate) [µM]
2′-(2-phenoxy-ethylsulfanylmethyl)-biphenyl-3-carboxylic acid (4-dimethylamino-butyl)-amide oxalate [Example 22]		10.8	

Source: patent US7132456B2, “MCH receptor antagonists” (Eli Lilly and Company, priority 2002, dated 2006)
